One data set can be described thus: Safety, adverse events. Particulars: of 11 patients. The format is in vivo, human.
For data set [1] the following is noted: erlotinib 150 mg daily with sorafenib; cycle 1 days +15, 16, 22, 29.
The conditions of data set [2]: phase I trial of sorafenib plus gefitinib; cited from earlier work.
In data set [3] the test system is RAF signal transduction capacity (MEK1/2 phosphorylation) in monocytes. Put plainly: MEK1/2 pShift assay. It is filed as cell-based, human. Particulars: patient 5, one sample, after 7 days of sorafenib (25.9% before sorafenib).
Data set [4] is described as follows: Sorafenib plasma pharmacokinetics in patients, with and without erlotinib. Particulars: for Cmax / Tmax / AUC: human, plasma, oral. The format is in vivo, human.
The next data set has as its system incurable solid tumor. Put plainly: Tumor response. It is filed as in vivo, human. Particulars: per patient.

For `C#Cc1cccc(Nc2ncnc3cc(OCCOC)c(OCCOC)cc23)c1` [erlotinib], in the data set “Safety, adverse events”, the “patients needing at least 1 dose delay” value turned out to be 7 patients, the “patients with doses delivered in full throughout the study” value was found to be 6 patients, the “patients with doses reduced” value was 2 patients and the “patients with drug discontinued” value is 3 patients. The “mean trough erlotinib concentration (Css,min)” value in data set [1] is listed as “around 500 ng/ml”.

As for `COc1cc2ncnc(Nc3ccc(F)c(Cl)c3)c2cc1OCCCN1CCOCC1` [gefitinib], in data set [2], the “change of gefitinib Cmax and AUC in the presence of sorafenib” value is on record as “decrease”.

For the molecule `CNC(=O)c1cc(Oc2ccc(NC(=O)Nc3ccc(Cl)c(C(F)(F)F)c3)cc2)ccn1` [sorafenib], the “additional monocytes shifted to the upper gate with IL3 versus vehicle (pShift)” value in data set [3] was found to be 0.7%. Besides, the “differences in PK variables of sorafenib in the presence or absence of erlotinib” value in data set [4] (day −2 vs day +15, Wilcoxon signed rank test) is recorded as “No statistically significant differences”. In data set [4], the peak concentration (Cmax) (usually the maximum level reached in the sampled fluid or tissue) was determined as 8600 ng/mL and the Tmax (usually the time at which the peak concentration occurs) is 4 h. The AUC (commonly concentration integrated over time) in data set [4] (150 mg) stood at 53200 ng·h/mL. This molecule also registered an AUC in data set [4] (400 mg) of 70900 ng·h/mL. Moreover, in data set [4] (400 mg bid), the Cmax is 8600 ng/mL and the Tmax came out at 4.2 h. Besides, in “Safety, adverse events”, the “patients needing at least 1 dose delay” value is given as “Nine”, the “patients with doses delivered in full throughout the study” value was 4 patients and the “patients with doses reduced” value is recorded as 7 patients. For the same molecule, the “TTP” value in the data set on incurable solid tumor amounted to 15 days.

Source of the values: paper PMC2838726 (Molecular cancer therapeutics, 2010).
